Species on record: Rattus norvegicus
Experiment: Open TG-GATES - Regimen: Single
Assay type: toxicity, organism-based, Sprague-Dawley
Parameters: regimen Single, gender Male, age 6 weeks
Details: in vivo, iv, 20 mg/kg, route intravenous injection, dose level Middle; for APTT / Bas / Eos / Fbg / Hb / Ht / Lym / MCH / MCHC / MCV / Mono / Neu / PT / Plat / RBC / Ret / WBC: tissue Blood; for KIDNEY_L / KIDNEY_R / KIDNEY_TOTAL: tissue Kidney; for LIVER: tissue Liver; for A/G / ALP / ALT / AST / BUN / CRE / Ca / Cl / DBIL / GLC / IP / K / LDH / Na / PL / RALB / TBIL / TC / TG / TP / gamma-GTP: tissue Plasma

NCCBr [BROMOETHANAMINE]
TERMINAL_BW (3 h): 213.1 g | APTT (3 h): 23.3 s | Bas (3 h): 0% | Eos (3 h): 0.8% | Fbg (3 h): 304 mg/dL | Hb (3 h): 13.6 g/dL | Ht (3 h): 39.3% | Lym (3 h): 77.8% | MCH (3 h): 21.5 pg | MCHC (3 h): 34.7% | MCV (3 h): 61.9 fL | Mono (3 h): 2.2% | Neu (3 h): 18.8% | PT (3 h): 16.2 s | Plat (3 h): 141.3 x10_4/uL | RBC (3 h): 635 x10_4/ul | Ret (3 h): 5.8% | WBC (3 h): 60.9 x10_2/uL | KIDNEY_L (3 h): 0.9 g | KIDNEY_R (3 h): 0.9 g | KIDNEY_TOTAL (3 h): 1.9 g | LIVER (3 h): 9.4 g | A/G (3 h): 1.2 | ALP (3 h): 1554.2 IU/L | ALT (3 h): 41.2 IU/L | AST (3 h): 67.2 IU/L | BUN (3 h): 11.6 mg/dL | CRE (3 h): 0.1 mg/dL | Ca (3 h): 10.8 mg/dL | Cl (3 h): 105 meq/L | DBIL (3 h): 0 mg/dL | GLC (3 h): 189.8 mg/dL | IP (3 h): 9.8 mg/dL | K (3 h): 3.8 meq/L | LDH (3 h): 210 IU/L | Na (3 h): 143.2 meq/L | PL (3 h): 130.8 mg/dL | RALB (3 h): 3.1 g/dL | TBIL (3 h): 0.014 mg/dL | TC (3 h): 79.4 mg/dL | TG (3 h): 50.2 mg/dL | TP (3 h): 5.7 g/dL | gamma-GTP (3 h): 1.6 IU/L | TERMINAL_BW (6 h): 214.7 g | APTT (6 h): 23.7 s | Bas (6 h): 0% | Eos (6 h): 1% | Fbg (6 h): 308.8 mg/dL | Hb (6 h): 13.5 g/dL | Ht (6 h): 39.4% | Lym (6 h): 74.4% | MCH (6 h): 21.6 pg | MCHC (6 h): 34.3% | MCV (6 h): 63 fL | Mono (6 h): 2.2% | Neu (6 h): 21.4% | PT (6 h): 16.1 s | Plat (6 h): 126.9 x10_4/uL | RBC (6 h): 624.6 x10_4/ul | Ret (6 h): 6.1% | WBC (6 h): 83.3 x10_2/uL | KIDNEY_L (6 h): 1 g | KIDNEY_R (6 h): 1 g | KIDNEY_TOTAL (6 h): 2 g | LIVER (6 h): 8.8 g | A/G (6 h): 1.2 | ALP (6 h): 1286 IU/L | ALT (6 h): 34.2 IU/L | AST (6 h): 68.6 IU/L | BUN (6 h): 9.8 mg/dL | CRE (6 h): 0.2 mg/dL | Ca (6 h): 10.5 mg/dL | Cl (6 h): 105.8 meq/L | DBIL (6 h): 0 mg/dL | GLC (6 h): 183.4 mg/dL | IP (6 h): 9.9 mg/dL | K (6 h): 4.2 meq/L | LDH (6 h): 183.2 IU/L | Na (6 h): 142 meq/L | PL (6 h): 117.2 mg/dL | RALB (6 h): 2.9 g/dL | TBIL (6 h): 0.026 mg/dL | TC (6 h): 74.4 mg/dL | TG (6 h): 28.8 mg/dL | TP (6 h): 5.5 g/dL | gamma-GTP (6 h): 1.6 IU/L | TERMINAL_BW (9 h): 205.7 g | APTT (9 h): 23.8 s | Bas (9 h): 0% | Eos (9 h): 0.6% | Fbg (9 h): 343 mg/dL | Hb (9 h): 13.9 g/dL | Ht (9 h): 40% | Lym (9 h): 74.4% | MCH (9 h): 21 pg | MCHC (9 h): 34.7% | MCV (9 h): 60.5 fL | Mono (9 h): 3% | Neu (9 h): 21.2% | PT (9 h): 15.9 s | Plat (9 h): 121.7 x10_4/uL | RBC (9 h): 662.2 x10_4/ul | Ret (9 h): 5.5% | WBC (9 h): 69.4 x10_2/uL | KIDNEY_L (9 h): 1 g | KIDNEY_R (9 h): 1 g | KIDNEY_TOTAL (9 h): 2 g | LIVER (9 h): 8.4 g | A/G (9 h): 1.1 | ALP (9 h): 1380.4 IU/L | ALT (9 h): 32.6 IU/L | AST (9 h): 63 IU/L | BUN (9 h): 12.2 mg/dL | CRE (9 h): 0.2 mg/dL | Ca (9 h): 10.6 mg/dL | Cl (9 h): 105.4 meq/L | DBIL (9 h): 0 mg/dL | GLC (9 h): 187 mg/dL | IP (9 h): 9.4 mg/dL | K (9 h): 3.7 meq/L | LDH (9 h): 170.6 IU/L | Na (9 h): 142.8 meq/L | PL (9 h): 139 mg/dL | RALB (9 h): 3 g/dL | TBIL (9 h): 0.018 mg/dL | TC (9 h): 80.2 mg/dL | TG (9 h): 66.2 mg/dL | TP (9 h): 5.8 g/dL | gamma-GTP (9 h): 1.2 IU/L | TERMINAL_BW (24 h): 213.8 g | APTT (24 h): 22.4 s | Bas (24 h): 0% | Eos (24 h): 0.8% | Fbg (24 h): 384.6 mg/dL | Hb (24 h): 13.9 g/dL | Ht (24 h): 40.7% | Lym (24 h): 80.8% | MCH (24 h): 21.1 pg | MCHC (24 h): 34% | MCV (24 h): 61.9 fL | Mono (24 h): 2.6% | Neu (24 h): 15% | PT (24 h): 16.4 s | Plat (24 h): 123.2 x10_4/uL | RBC (24 h): 659.2 x10_4/ul | Ret (24 h): 4.9% | WBC (24 h): 85.8 x10_2/uL | KIDNEY_L (24 h): 1 g | KIDNEY_R (24 h): 1 g | KIDNEY_TOTAL (24 h): 2 g | LIVER (24 h): 9.5 g | A/G (24 h): 1.1 | ALP (24 h): 1544 IU/L | ALT (24 h): 41.8 IU/L | AST (24 h): 69.8 IU/L | BUN (24 h): 25.6 mg/dL | CRE (24 h): 0.2 mg/dL | Ca (24 h): 11 mg/dL | Cl (24 h): 105.6 meq/L | DBIL (24 h): 0.002 mg/dL | GLC (24 h): 190.4 mg/dL | IP (24 h): 6.7 mg/dL | K (24 h): 4.2 meq/L | LDH (24 h): 200.8 IU/L | Na (24 h): 142.8 meq/L | PL (24 h): 152.2 mg/dL | RALB (24 h): 3 g/dL | TBIL (24 h): 0.012 mg/dL | TC (24 h): 89.6 mg/dL | TG (24 h): 89 mg/dL | TP (24 h): 5.7 g/dL | gamma-GTP (24 h): 2.2 IU/L
